Structures are written as SMILES. Bounds are passed on as bounds.

The target of test [1] is Beta-2 adrenergic receptor (Homo sapiens, UniProt P07550).
For test [2], the target named is Voltage-dependent L-type calcium channel subunit alpha-1C (Rattus norvegicus, UniProt P22002). The class given is functional.
For a further test, the target named is T1, Progesterone receptor (Homo sapiens, UniProt P06401).
T1 sequence (P06401 whole entry): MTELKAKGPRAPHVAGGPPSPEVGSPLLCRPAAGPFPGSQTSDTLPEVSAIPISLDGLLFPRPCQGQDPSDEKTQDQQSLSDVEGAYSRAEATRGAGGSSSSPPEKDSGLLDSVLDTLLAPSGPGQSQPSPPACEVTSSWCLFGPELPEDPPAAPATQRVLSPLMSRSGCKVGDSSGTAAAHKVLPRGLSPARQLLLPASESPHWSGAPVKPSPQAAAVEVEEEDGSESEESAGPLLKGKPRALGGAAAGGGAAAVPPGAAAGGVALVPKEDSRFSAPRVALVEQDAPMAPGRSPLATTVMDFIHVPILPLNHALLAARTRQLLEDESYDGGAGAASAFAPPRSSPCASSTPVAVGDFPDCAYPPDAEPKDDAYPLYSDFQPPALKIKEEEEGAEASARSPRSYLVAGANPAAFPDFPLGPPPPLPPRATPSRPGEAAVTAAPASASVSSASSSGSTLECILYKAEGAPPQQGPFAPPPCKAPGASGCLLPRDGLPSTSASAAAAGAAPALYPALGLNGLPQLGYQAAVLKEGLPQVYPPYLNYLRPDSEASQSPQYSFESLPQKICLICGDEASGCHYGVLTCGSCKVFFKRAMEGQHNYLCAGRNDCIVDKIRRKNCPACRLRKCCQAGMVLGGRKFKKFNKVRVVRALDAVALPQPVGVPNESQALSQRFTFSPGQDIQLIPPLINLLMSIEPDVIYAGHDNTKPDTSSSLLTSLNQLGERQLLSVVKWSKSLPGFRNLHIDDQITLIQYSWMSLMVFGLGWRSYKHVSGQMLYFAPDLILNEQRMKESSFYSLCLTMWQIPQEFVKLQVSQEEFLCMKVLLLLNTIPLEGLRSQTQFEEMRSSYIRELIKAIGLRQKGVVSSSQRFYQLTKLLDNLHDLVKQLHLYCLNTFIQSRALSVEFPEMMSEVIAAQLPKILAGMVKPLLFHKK
The class given is functional.

Test [3] concerns the target T2, Alpha-2B adrenergic receptor (Homo sapiens, UniProt P18089).
T2 sequence (P18089 whole entry): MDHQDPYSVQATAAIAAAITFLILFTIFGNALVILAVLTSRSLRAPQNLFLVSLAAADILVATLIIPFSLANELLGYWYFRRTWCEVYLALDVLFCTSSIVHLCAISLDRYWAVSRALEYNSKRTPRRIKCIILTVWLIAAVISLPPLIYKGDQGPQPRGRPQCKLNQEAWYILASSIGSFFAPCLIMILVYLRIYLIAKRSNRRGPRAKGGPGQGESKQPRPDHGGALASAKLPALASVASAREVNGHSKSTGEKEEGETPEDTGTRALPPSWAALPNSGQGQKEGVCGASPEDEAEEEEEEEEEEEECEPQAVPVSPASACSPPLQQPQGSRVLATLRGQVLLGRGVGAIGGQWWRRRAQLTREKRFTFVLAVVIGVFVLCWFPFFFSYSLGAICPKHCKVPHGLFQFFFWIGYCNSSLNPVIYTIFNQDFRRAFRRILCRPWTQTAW

For test [4], the target named is Muscarinic acetylcholine receptor M3 (Homo sapiens, UniProt P20309).
Muscarinic acetylcholine receptor M3, sequence (P20309 whole entry): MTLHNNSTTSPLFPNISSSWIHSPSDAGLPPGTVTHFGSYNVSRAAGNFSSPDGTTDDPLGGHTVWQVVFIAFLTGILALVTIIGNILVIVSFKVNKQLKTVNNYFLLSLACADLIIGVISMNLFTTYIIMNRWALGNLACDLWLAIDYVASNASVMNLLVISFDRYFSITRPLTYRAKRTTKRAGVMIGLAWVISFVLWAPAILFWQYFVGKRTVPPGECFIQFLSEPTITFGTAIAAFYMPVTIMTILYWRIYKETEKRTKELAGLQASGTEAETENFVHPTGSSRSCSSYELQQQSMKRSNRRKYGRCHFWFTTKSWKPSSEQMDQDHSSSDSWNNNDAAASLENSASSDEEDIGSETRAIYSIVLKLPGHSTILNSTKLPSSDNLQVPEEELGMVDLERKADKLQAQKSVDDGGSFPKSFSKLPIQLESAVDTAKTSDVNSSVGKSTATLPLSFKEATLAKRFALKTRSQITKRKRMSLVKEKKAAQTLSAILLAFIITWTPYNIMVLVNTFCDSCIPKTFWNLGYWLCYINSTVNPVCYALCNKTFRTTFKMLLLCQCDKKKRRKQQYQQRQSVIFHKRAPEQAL
In test [5] the target is T3, Alpha-2A adrenergic receptor (Homo sapiens, UniProt P08913).
T3 sequence (P08913 whole entry): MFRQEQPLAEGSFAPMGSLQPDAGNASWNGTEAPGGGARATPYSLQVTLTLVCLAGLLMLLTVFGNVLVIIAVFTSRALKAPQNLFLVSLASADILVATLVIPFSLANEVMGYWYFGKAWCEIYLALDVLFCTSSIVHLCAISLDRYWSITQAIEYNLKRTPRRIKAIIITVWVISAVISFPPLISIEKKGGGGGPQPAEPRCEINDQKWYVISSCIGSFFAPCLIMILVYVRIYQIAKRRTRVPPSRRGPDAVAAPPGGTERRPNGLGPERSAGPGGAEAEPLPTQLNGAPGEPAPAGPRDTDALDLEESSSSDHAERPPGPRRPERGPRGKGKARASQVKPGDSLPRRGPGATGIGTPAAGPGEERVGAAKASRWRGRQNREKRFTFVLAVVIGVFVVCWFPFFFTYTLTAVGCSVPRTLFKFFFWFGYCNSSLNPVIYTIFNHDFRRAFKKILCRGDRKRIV
Note: assay procedure not described here.

Beta-2 adrenergic receptor, sequence (P07550 whole entry): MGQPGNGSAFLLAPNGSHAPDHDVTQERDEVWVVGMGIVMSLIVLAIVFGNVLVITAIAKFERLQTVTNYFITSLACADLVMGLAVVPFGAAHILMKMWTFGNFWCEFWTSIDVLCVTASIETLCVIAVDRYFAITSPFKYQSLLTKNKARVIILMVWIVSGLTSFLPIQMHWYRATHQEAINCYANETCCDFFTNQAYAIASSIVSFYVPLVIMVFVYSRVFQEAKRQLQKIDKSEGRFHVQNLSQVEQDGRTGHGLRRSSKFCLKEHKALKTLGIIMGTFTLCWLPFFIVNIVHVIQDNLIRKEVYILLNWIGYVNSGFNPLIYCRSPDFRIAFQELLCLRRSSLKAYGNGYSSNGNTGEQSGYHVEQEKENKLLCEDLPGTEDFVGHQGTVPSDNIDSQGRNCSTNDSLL
Voltage-dependent L-type calcium channel subunit alpha-1C, sequence (P22002 whole entry): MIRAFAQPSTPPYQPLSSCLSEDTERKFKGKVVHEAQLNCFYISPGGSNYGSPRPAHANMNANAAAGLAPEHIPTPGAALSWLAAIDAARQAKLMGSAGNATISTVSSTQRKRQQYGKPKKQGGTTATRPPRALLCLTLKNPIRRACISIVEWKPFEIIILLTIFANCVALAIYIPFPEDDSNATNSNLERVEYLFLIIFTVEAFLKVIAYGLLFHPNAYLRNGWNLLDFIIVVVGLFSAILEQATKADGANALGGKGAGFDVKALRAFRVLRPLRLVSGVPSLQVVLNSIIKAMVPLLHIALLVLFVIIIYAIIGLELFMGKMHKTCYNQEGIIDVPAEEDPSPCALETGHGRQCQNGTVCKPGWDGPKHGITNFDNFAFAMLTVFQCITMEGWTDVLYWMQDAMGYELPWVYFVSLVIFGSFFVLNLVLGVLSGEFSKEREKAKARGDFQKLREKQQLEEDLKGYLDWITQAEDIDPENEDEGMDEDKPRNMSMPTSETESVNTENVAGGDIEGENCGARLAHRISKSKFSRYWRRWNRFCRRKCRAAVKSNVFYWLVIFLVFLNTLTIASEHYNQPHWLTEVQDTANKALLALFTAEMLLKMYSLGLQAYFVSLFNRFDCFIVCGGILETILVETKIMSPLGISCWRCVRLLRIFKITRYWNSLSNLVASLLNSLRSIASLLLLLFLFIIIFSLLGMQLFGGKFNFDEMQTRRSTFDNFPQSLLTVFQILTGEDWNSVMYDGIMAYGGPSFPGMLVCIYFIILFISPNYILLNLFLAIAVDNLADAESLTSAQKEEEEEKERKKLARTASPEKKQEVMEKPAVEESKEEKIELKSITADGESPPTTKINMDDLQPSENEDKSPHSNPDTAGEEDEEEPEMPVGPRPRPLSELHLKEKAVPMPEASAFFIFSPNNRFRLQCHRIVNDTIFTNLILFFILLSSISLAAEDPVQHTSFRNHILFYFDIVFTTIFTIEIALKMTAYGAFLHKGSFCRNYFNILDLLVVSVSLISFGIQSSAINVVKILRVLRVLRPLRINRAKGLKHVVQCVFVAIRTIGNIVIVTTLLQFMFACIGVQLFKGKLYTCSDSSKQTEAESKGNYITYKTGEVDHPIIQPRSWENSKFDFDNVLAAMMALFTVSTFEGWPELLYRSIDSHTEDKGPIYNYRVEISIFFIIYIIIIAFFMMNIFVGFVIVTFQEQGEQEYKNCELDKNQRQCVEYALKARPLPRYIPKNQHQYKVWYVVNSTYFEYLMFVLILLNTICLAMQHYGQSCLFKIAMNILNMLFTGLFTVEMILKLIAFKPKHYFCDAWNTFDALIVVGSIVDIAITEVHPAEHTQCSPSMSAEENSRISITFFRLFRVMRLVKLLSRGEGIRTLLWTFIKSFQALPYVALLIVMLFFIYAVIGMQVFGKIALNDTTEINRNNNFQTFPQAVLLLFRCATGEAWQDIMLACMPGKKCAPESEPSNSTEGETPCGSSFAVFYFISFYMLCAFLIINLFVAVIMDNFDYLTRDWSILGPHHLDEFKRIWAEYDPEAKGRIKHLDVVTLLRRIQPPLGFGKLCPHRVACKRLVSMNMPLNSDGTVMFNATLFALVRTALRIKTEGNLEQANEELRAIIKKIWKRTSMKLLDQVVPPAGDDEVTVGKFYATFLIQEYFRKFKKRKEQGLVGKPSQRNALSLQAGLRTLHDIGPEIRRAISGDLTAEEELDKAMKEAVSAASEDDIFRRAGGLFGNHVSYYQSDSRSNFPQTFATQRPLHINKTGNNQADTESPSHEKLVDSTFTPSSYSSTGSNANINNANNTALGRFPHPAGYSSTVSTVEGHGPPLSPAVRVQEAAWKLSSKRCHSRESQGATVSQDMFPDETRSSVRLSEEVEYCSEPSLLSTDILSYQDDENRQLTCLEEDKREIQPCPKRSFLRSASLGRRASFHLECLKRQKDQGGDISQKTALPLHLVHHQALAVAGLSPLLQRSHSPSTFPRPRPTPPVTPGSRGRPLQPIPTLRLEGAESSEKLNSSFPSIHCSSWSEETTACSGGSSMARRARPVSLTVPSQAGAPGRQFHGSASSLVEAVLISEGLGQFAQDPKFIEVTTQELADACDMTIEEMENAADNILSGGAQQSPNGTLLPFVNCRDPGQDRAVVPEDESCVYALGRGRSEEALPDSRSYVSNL

In general, AC50 refers to the midpoint of the concentration-response curve, whichever way the signal moves. `Cc1cc2cc3c(C)cc(=O)oc3c(C)c2o1` [TRIOXSALEN]: the half-maximal activity concentration (AC50) is > 10 µM in test [1], > 10 µM in test [2] and > 30 µM at Progesterone receptor.

`Clc1ccc(C(Cn2ccnc2)OCc2ccsc2Cl)c(Cl)c1` (configuration not stated) [TIOCONAZOLE]: the concentration at half-maximal activity (AC50) in test [3] is > 30 µM; in test [1], 10.6 µM; in test [2] it was 23 µM; in test [4], 26 µM; at Progesterone receptor it was > 30 µM.

Consider `Clc1ccc2c(N3CCN(CCCN4CCN(c5ccnc6cc(Cl)ccc56)CC4)CC3)ccnc2c1` [PIPERAQUINE], for which the AC50 (in test [3]; in test [1]; in test [2]; in test [4]; at Progesterone receptor) was > 30 µM throughout.

On to `CNCc1ccc(-c2[nH]c3cc(F)cc4c3c2CCNC4=O)cc1` [RUCAPARIB], for which the AC50 was > 30 µM in test [1] and 15.6 µM on Progesterone receptor.

As to `CC12CC3CC(C)(C1)CC(N)(C3)C2` [MEMANTINE], the AC50 in test [3] is > 10 µM; in test [1], > 10 µM; in test [2], > 10 µM; in test [4] it was > 30 µM.

In the case of `CN1CCC(=C2c3ccccc3CCc3cccnc32)CC1` [AZATADINE], the concentration at half-maximal activity (AC50) in test [3] is > 10 µM; in test [1] it was > 10 µM; in test [2], > 10 µM; in test [4] it was > 30 µM.

For `CCOC(=O)C1=C[C@]2(CC)CCCN3CCc4c(n1c1ccccc41)[C@@H]32` [VINPOCETINE], the AC50 in test [3] is 2.4 µM; in test [4] it was > 30 µM; on Progesterone receptor, > 30 µM.

Turning to `COCC1=C(C(=O)O)N2C(=O)[C@@H](NC(=O)/C(=N\OC)c3csc(N)n3)[C@H]2SC1` [CEFPODOXIME], the AC50 (in test [3]; in test [1]; in test [2]; in test [4]; at Progesterone receptor) was > 30 µM each time.

On to `C[C@H](Cc1ccc(O)c(O)c1)[C@@H](C)Cc1ccc(O)c(O)c1` [MASOPROCOL], for which the AC50 in test [3] was 8.1 µM; in test [1], > 10 µM; in test [2], > 10 µM; in test [4], > 30 µM; on Progesterone receptor, > 30 µM.

With `Cc1ccccc1N1CCN(CCc2nnc3n2CCCC3)CC1` [DAPIPRAZOLE], in test [5], half-maximal activity (AC50) was put at 3.77 µM.

For the molecule `C=C1CC[C@H](O)C/C1=C/C=C1\CCC[C@]2(C)[C@@H]([C@H](C)/C=C/[C@H](C)C(C)C)CC[C@@H]12` [ERGOCALCIFEROL], the half-maximal activity concentration (AC50) in test [5] was > 30 µM.

As to `CCOC(=O)C1=C(C)NC(C)=C(C(=O)OC)C1c1cccc([N+](=O)[O-])c1` (configuration not stated) [NITRENDIPINE], the AC50 in test [1] was > 10 µM; in test [2], 0.0004 µM.

As to `[H]/N=C(/N)N/C(=N/[H])NCCc1ccccc1` [PHENFORMIN], the AC50 is 15 µM in test [3], > 10 µM in test [1], > 30 µM in test [2] and > 30 µM in test [4].

`Cc1cccc(N2CC(CO)OC2=O)c1` (configuration not stated) [TOLOXATONE]: the half-maximal activity concentration (AC50) (in test [3]; in test [2]; in test [4]; on Progesterone receptor) was > 30 µM throughout.

Turning to `CCCCC(=O)O[C@]1(C(=O)CO)[C@@H](C)C[C@H]2[C@@H]3CCC4=CC(=O)C=C[C@]4(C)[C@@]3(F)[C@@H](O)C[C@@]21C` [BETAMETHASONE VALERATE], the AC50 in test [3] is > 10 µM; in test [1] it was > 10 µM; in test [2], > 10 µM; in test [4], > 30 µM.

`C#C[C@]1(OC(C)=O)CC[C@H]2[C@@H]3CCC4=C/C(=N/O)CC[C@@H]4[C@H]3CC[C@@]21CC` [NORGESTIMATE]: the AC50 is > 30 µM in test [3], > 30 µM in test [1], > 30 µM in test [2] and 0.02 µM at Progesterone receptor.

On to `CCCN[C@H]1CCc2nc(N)sc2C1` [PRAMIPEXOLE], for which the concentration at half-maximal activity (AC50) in test [1] was > 30 µM; in test [2], > 10 µM; in test [4] it was > 30 µM; at Progesterone receptor, > 30 µM.

For `Oc1ccc2c(c1)CC[C@H](c1ccccc1)[C@@H]2c1ccc(OCCN2CCCC2)cc1` [LASOFOXIFENE], the AC50 was 8.2 µM in test [3], 11 µM in test [4] and > 30 µM on Progesterone receptor.

As to `CCC[C@H](NC(=O)[C@@H]1[C@H]2CCC[C@H]2CN1C(=O)[C@@H](NC(=O)[C@@H](NC(=O)c1cnccn1)C1CCCCC1)C(C)(C)C)C(=O)C(=O)NC1CC1`, the concentration at half-maximal activity (AC50) in test [3] is > 10 µM; in test [1] it was > 10 µM; in test [2] it was > 10 µM; in test [4], > 30 µM.

As for `CC(N)C(O)c1ccccc1` (configuration not stated) [PHENYLPROPANOLAMINE], the AC50 in test [3], in test [1] and in test [2] was > 10 µM each time.

Regarding `C[C@]12CC[C@@H]3c4ccc(O)cc4C[C@@H](CCCCCCCCC[S+]([O-])CCCC(F)(F)C(F)(F)F)[C@H]3[C@@H]1CC[C@@H]2O` (some centres not stated) [FULVESTRANT], the half-maximal activity concentration (AC50) (in test [3]; in test [4]; on Progesterone receptor) was > 30 µM throughout.

As for `Cc1noc(NS(=O)(=O)c2ccc(N)cc2)c1C` [SULFISOXAZOLE], the AC50 (in test [1]; in test [2]; at Progesterone receptor) was > 10 µM in each case.

For `CC(C)NCC(O)c1ccc(O)c(O)c1` (configuration not stated) [ISOPROTERENOL], the results for the concentration at half-maximal activity (AC50) (in test [2]; on Progesterone receptor) were > 10 µM and > 30 µM, respectively.

Turning to `CC(=O)N[C@@H](CS)C(=O)O` [ACETYLCYSTEINE], the values for the half-maximal activity concentration (AC50) (in test [3]; in test [4]; on Progesterone receptor) were > 10 µM, > 30 µM and > 30 µM, respectively.

Regarding `CCCCC1C(=O)N(c2ccccc2)N(c2ccccc2)C1=O` [PHENYLBUTAZONE], the concentration at half-maximal activity (AC50) (in test [1]; in test [2]; at Progesterone receptor) was > 10 µM each time.

As for `CCCC(CCC)C(N)=O` [VALPROMIDE], the AC50 was > 10 µM in test [3], > 10 µM in test [1], > 10 µM in test [2] and > 30 µM in test [4].

Regarding `CCC(C)C1(CC)C(=O)NC(=O)NC1=O` (configuration not stated) [BUTABARBITAL], the concentration at half-maximal activity (AC50) at Progesterone receptor was > 30 µM.

For the molecule `C/N=C(\NC)NCc1ccccc1` [BETHANIDINE], the AC50 (in test [3]; in test [4]; on Progesterone receptor) was > 30 µM in each case.

As to `CNC1=Nc2ccc(Cl)cc2C(c2ccccc2)=[N+]([O-])C1` [CHLORDIAZEPOXIDE], the half-maximal activity concentration (AC50) in test [1] and in test [2] was > 10 µM each time.

For the molecule `CC(CCc1ccc(O)cc1)NCCc1ccc(O)c(O)c1` (configuration not stated) [DOBUTAMINE], the figures for the half-maximal activity concentration (AC50) (in test [1]; in test [2]; at Progesterone receptor) were 5.07 µM, > 30 µM and > 30 µM, respectively.

In the case of `Nc1ncn([C@H]2C[C@H](O)[C@@H](CO)O2)c(=O)n1` [DECITABINE], the concentration at half-maximal activity (AC50) (in test [3]; in test [2]; in test [4]; on Progesterone receptor) was > 30 µM in each case.

As for `CC(C(=O)O)c1ccc(CC2CCCC2=O)cc1` (configuration not stated) [LOXOPROFEN], the AC50 (in test [1]; in test [2]; at Progesterone receptor) was > 30 µM throughout.

As to `CCC(C)C(CC)C(N)=O` (configuration not stated) [VALNOCTAMIDE], the half-maximal activity concentration (AC50) (in test [3]; in test [4]; on Progesterone receptor) was > 30 µM each time.

Source of the values: ChEMBL document CHEMBL5291721, “A preclinical secondary pharmacology resource illuminates target-adverse drug reaction associations of marketed drugs” (Nat Commun, 2023).
